Key:
Details in all cases: exposure time: 72 h
[1] = test system: E21 (patient-derived glioblastoma stem cells of mesenchymal subtype); assay: phenotypic distance (Euclidean, principal components) from DMSO controls (arbitrary units); higher = stronger morphological change
[2] = test system: E31 (patient-derived glioblastoma stem cells of proneural subtype); assay: as above
[3] = test system: E13 (patient-derived glioblastoma stem cells of classical subtype); assay: as above
[4] = test system: E57 (patient-derived glioblastoma stem cells of mesenchymal subtype); assay: as above
[5] = test system: E28 (patient-derived glioblastoma stem cells of classical subtype); assay: as above
[6] = test system: E34 (patient-derived glioblastoma stem cells of proneural subtype); assay: as above
[7] = test system: FT3469 (normal neural stem cell line); assay: as above
[8] = test system: E21; assay: surviving fraction (nuclei count normalised to DMSO); higher = more cells surviving (less toxic)
[9] = test system: E31; assay: as above
[10] = test system: E13; assay: as above
[11] = test system: E57; assay: as above
[12] = test system: E28; assay: as above
[13] = test system: E34; assay: as above
[14] = test system: FT3469; assay: as above
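Throughout, for phenotypic distance (Euclidean, principal components) from DMSO controls: cell Painting imaging in 384-well plates, CellProfiler features reduced to at least 20 principal components, Euclidean distance versus same-plate DMSO vehicle wells (0.1% v/v), median over six images per well.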
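Throughout, for surviving fraction (nuclei count normalised to DMSO): nuclei counted by high-content imaging of Hoechst-stained cells in laminin-coated 384-well plates, relative to 0.1% DMSO vehicle wells, with staurosporine as cell-death control.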

CN(c1nccc(=O)[nH]1)C1CCN(c2nc3ccccc3n2Cc2ccc(F)cc2)CC1 [Mizolastine]
phenotypic distance ([1]; 4.1 nM): 0.704
phenotypic distance ([1]; 12.3 nM): 0.468
phenotypic distance ([1]; 37 nM): 0.444
phenotypic distance ([1]; 111.1 nM): 0.765
phenotypic distance ([1]; 333.3 nM): 0.434
phenotypic distance ([1]; 1000 nM): 0.621
phenotypic distance ([1]; 3000 nM): 0.543
phenotypic distance ([2]; 4.1 nM): 0.567
phenotypic distance ([2]; 12.3 nM): 0.802
phenotypic distance ([2]; 37 nM): 1.44
phenotypic distance ([2]; 111.1 nM): 0.455
phenotypic distance ([2]; 333.3 nM): 0.814
phenotypic distance ([2]; 1000 nM): 0.555
phenotypic distance ([2]; 3000 nM): 0.652
phenotypic distance ([3]; 4.1 nM): 0.868
phenotypic distance ([3]; 12.3 nM): 0.459
phenotypic distance ([3]; 37 nM): 0.939
phenotypic distance ([3]; 111.1 nM): 0.783
phenotypic distance ([3]; 333.3 nM): 0.597
phenotypic distance ([3]; 1000 nM): 0.555
phenotypic distance ([3]; 3000 nM): 0.59
phenotypic distance ([4]; 4.1 nM): 0.544
phenotypic distance ([4]; 12.3 nM): 0.715
phenotypic distance ([4]; 37 nM): 3.66
phenotypic distance ([4]; 111.1 nM): 0.766
phenotypic distance ([4]; 333.3 nM): 0.54
phenotypic distance ([4]; 1000 nM): 0.624
phenotypic distance ([4]; 3000 nM): 0.531
phenotypic distance ([5]; 4.1 nM): 0.853
phenotypic distance ([5]; 12.3 nM): 5.48
phenotypic distance ([5]; 37 nM): 0.52
phenotypic distance ([5]; 111.1 nM): 0.84
phenotypic distance ([5]; 333.3 nM): 0.698
phenotypic distance ([5]; 1000 nM): 0.693
phenotypic distance ([5]; 3000 nM): 0.97
phenotypic distance ([6]; 4.1 nM): 0.476
phenotypic distance ([6]; 12.3 nM): 1.2
phenotypic distance ([6]; 37 nM): 1.86
phenotypic distance ([6]; 111.1 nM): 0.66
phenotypic distance ([6]; 333.3 nM): 0.677
phenotypic distance ([6]; 1000 nM): 0.599
phenotypic distance ([6]; 3000 nM): 0.698
phenotypic distance ([7]; 4.1 nM): 0.538
phenotypic distance ([7]; 12.3 nM): 1.14
phenotypic distance ([7]; 37 nM): 0.386
phenotypic distance ([7]; 111.1 nM): 0.797
phenotypic distance ([7]; 333.3 nM): 0.453
phenotypic distance ([7]; 1000 nM): 0.544
phenotypic distance ([7]; 3000 nM): 0.613
surviving fraction ([8]; 4.1 nM): 1
surviving fraction ([8]; 12.3 nM): 1
surviving fraction ([8]; 37 nM): 0.949
surviving fraction ([8]; 111.1 nM): 1.03
surviving fraction ([8]; 333.3 nM): 1.03
surviving fraction ([8]; 1000 nM): 1.01
surviving fraction ([8]; 3000 nM): 1.09
surviving fraction ([9]; 4.1 nM): 1.01
surviving fraction ([9]; 12.3 nM): 1.16
surviving fraction ([9]; 37 nM): 0.825
surviving fraction ([9]; 111.1 nM): 1.19
surviving fraction ([9]; 333.3 nM): 0.944
surviving fraction ([9]; 1000 nM): 1.18
surviving fraction ([9]; 3000 nM): 0.875
surviving fraction ([10]; 4.1 nM): 0.797
surviving fraction ([10]; 12.3 nM): 0.967
surviving fraction ([10]; 37 nM): 0.849
surviving fraction ([10]; 111.1 nM): 0.869
surviving fraction ([10]; 333.3 nM): 0.989
surviving fraction ([10]; 1000 nM): 0.896
surviving fraction ([10]; 3000 nM): 0.956
surviving fraction ([11]; 4.1 nM): 0.99
surviving fraction ([11]; 12.3 nM): 1.02
surviving fraction ([11]; 37 nM): 1.06
surviving fraction ([11]; 111.1 nM): 0.976
surviving fraction ([11]; 333.3 nM): 1.05
surviving fraction ([11]; 1000 nM): 1.05
surviving fraction ([11]; 3000 nM): 1.06
surviving fraction ([12]; 4.1 nM): 1.08
surviving fraction ([12]; 12.3 nM): 1.1
surviving fraction ([12]; 37 nM): 1.1
surviving fraction ([12]; 111.1 nM): 1.19
surviving fraction ([12]; 333.3 nM): 1.06
surviving fraction ([12]; 1000 nM): 1.13
surviving fraction ([12]; 3000 nM): 0.972
surviving fraction ([13]; 4.1 nM): 1.16
surviving fraction ([13]; 12.3 nM): 0.983
surviving fraction ([13]; 37 nM): 1.01
surviving fraction ([13]; 111.1 nM): 0.939
surviving fraction ([13]; 333.3 nM): 1.04
surviving fraction ([13]; 1000 nM): 1.1
surviving fraction ([13]; 3000 nM): 0.941
surviving fraction ([14]; 4.1 nM): 1.15
surviving fraction ([14]; 12.3 nM): 0.975
surviving fraction ([14]; 37 nM): 0.987
surviving fraction ([14]; 111.1 nM): 1.06
surviving fraction ([14]; 333.3 nM): 1.03
surviving fraction ([14]; 1000 nM): 0.94
surviving fraction ([14]; 3000 nM): 1.15
